Among the test systems are ACHN renal; LOX IMVI melanoma; MOLT-4 leukemia; NCI-H23 lung; OVCAR-4 ovarian; RPMI-8226 leukemia; SF-268 CNS; SK-MEL-28 melanoma; SK-MEL-5 melanoma; SW-620 colon.
Experiment in all cases: NCI-60 cell line screen, 48 h

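Five compound concentrations were applied to cells in 96-well plates for 48 hours; endpoints were derived by simple linear interpolation of the resulting dose-response curve. GI50 is the concentration that inhibits growth by half. TGI: total growth inhibition.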 Bounds are passed on as bounds.

On to `CN1CCN(Cn2nc(-c3cc(F)c(Cl)cc3Cl)oc2=S)CC1`, for which the GI50 in the assay with ACHN renal was 34.6 µM; in the assay with LOX IMVI melanoma it was 20.3 µM; with MOLT-4 leukemia it was 30.5 µM; with NCI-H23 lung, 76.5 µM; in the assay on OVCAR-4 ovarian, 30.9 µM; with RPMI-8226 leukemia it was 22.7 µM. The GI50 with SF-268 CNS is 34.2 µM; in the assay on SK-MEL-28 melanoma it was 28.6 µM; in the assay on SK-MEL-5 melanoma, 17.4 µM; in the assay with SW-620 colon, 20 µM. For the same compound, the TGI is greater than 100 µM with ACHN renal; 45.6 µM in the assay with LOX IMVI melanoma; 70.9 µM with MOLT-4 leukemia; greater than 100 µM in the assay on NCI-H23 lung; greater than 100 µM in the assay on OVCAR-4 ovarian; 50.9 µM with RPMI-8226 leukemia. In addition, the TGI with SF-268 CNS was greater than 100 µM; in the assay on SK-MEL-28 melanoma, greater than 100 µM; in the assay with SK-MEL-5 melanoma, 33.7 µM; in the assay on SW-620 colon it was 39.4 µM.

Values taken from PubChem BioAssay (NCI).
